In patent US12459922B2 (Gilead Sciences, Inc., priority 2022, dated 2025):

Experiments:
PARP7 = target: T1, PARP7 (Homo sapiens, UniProt Q7Z3E1); assay: Probe Displacement Assay for PARP7 (MSD electrochemiluminescent, biotinylated probe RBNO11147); conditions: displacement of biotinylated probe RBNO11147 from PARP7 NAD+-binding site; read-out: MSD ProbeDisp PARP7 IC50
T1 sequence (Q7Z3E1 1-657): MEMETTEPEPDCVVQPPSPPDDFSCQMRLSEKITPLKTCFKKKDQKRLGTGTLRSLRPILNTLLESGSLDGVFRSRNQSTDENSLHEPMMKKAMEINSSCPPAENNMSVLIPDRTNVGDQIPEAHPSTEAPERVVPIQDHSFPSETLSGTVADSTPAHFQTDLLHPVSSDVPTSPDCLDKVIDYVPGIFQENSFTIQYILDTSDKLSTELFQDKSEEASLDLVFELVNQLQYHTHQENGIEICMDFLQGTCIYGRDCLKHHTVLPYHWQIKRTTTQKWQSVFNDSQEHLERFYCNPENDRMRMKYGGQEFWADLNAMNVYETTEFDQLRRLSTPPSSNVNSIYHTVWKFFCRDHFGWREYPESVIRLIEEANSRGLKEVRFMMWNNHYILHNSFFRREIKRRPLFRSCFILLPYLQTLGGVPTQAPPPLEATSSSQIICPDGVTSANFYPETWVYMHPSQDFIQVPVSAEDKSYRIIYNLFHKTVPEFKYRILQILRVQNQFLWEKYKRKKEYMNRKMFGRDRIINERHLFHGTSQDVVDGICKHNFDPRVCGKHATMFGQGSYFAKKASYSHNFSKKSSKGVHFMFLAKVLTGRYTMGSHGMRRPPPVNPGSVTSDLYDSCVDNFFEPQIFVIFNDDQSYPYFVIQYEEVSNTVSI

[1] = system: endogenous cellular STAT1 (phosphorylated at Tyr701) in NCI-H1373 cells; assay: Phospho-STAT1 (Tyr701) LANCE Ultra TR-FRET Detection Assay; type: cell-based; conditions: Homo sapiens, NCI-H1373, 48 h, phospho-STAT1 (Tyr701) induction, read-out: NH1373 pSTAT1 EC50

IC50 (PARP7) [nM] | EC50 [1] [nM] | Compound
0.339 | 3.03 | Nc1nc(-c2cc3ccn(CCC[C@H](COC(F)F)Nc4cn[nH]c(=O)c4C(F)(F)F)c(=O)c3cc2F)ncc1C(F)F [Example 376, (R)-6-(4-amino-5-(difluoromethyl)pyrimidin-2-yl)-2-(5-(difluoromethoxy)-4-((6-oxo-5-(trifluoromethyl)-1,6-dihydropyridazin-4-yl)amino)pentyl)-7-fluoroisoquinolin-1(2H)-one]
0.179 | 1.15 | O=c1[nH]ncc(N[C@H](CCCn2ccc3cc(-c4ncc(C(F)F)cn4)c(F)cc3c2=O)COC(F)F)c1C(F)(F)F [Example 377, (R)-2-(5-(difluoromethoxy)-4-((6-oxo-5-(trifluoromethyl)-1,6-dihydropyridazin-4-yl)amino)pentyl)-6-(5-(difluoromethyl)pyrimidin-2-yl)-7-fluoroisoquinolin-1(2H)-one]
0.255 | 2.45 | Nc1nc(-c2cc3ccn(CCC[C@H](COC(F)F)Nc4cn[nH]c(=O)c4C(F)(F)F)c(=O)c3cc2F)ncc1Cl [Example 378, (R)-6-(4-amino-5-chloropyrimidin-2-yl)-2-(5-(difluoromethoxy)-4-((6-oxo-5-(trifluoromethyl)-1,6-dihydropyridazin-4-yl)amino)pentyl)-7-fluoroisoquinolin-1(2H)-one]
0.14 | 2.43 | Nc1nc(-c2cc3ccn(CCC[C@H](COC(F)F)Nc4cn[nH]c(=O)c4C(F)(F)F)c(=O)c3cc2F)ncc1C(F)(F)F [Example 379, (R)-6-(4-amino-5-(trifluoromethyl)pyrimidin-2-yl)-2-(5-(difluoromethoxy)-4-((6-oxo-5-(trifluoromethyl)-1,6-dihydropyridazin-4-yl)amino)pentyl)-7-fluoroisoquinolin-1(2H)-one]
0.211 | 4.88 | Nc1nc(-c2cc3ccn(CCC[C@H](COC(F)F)Nc4cn[nH]c(=O)c4C(F)(F)F)c(=O)c3cc2F)ccc1C(F)(F)F [Example 380, (R)-6-(6-amino-5-(trifluoromethyl)pyridin-2-yl)-2-(5-(difluoromethoxy)-4-((6-oxo-5-(trifluoromethyl)-1,6-dihydropyridazin-4-yl)amino)pentyl)-7-fluoroisoquinolin-1(2H)-one]
0.28 | 0.885 | O=c1[nH]ncc(N[C@H](CCCn2ccc3cc(-c4ncc(Cl)cn4)c(F)cc3c2=O)COC(F)F)c1C(F)(F)F [Example 381, (R)-6-(5-chloropyrimidin-2-yl)-2-(5-(difluoromethoxy)-4-((6-oxo-5-(trifluoromethyl)-1,6-dihydropyridazin-4-yl)amino)pentyl)-7-fluoroisoquinolin-1(2H)-one]
